Test results: publication PMC5856391, “Critical role of C-terminal residues of the Alzheimer's associated β-amyloid protein in mediating antiviral activity and modulating viral and bacterial interactions with neutrophils” (PLoS ONE, 2018)
“Also recorded” adds a separate entry of the source.

How the values were obtained:
IAV [1] = assay: Viral aggregation by electron microscopy; set-up: species or system influenza A virus; conditions: 2 or 8μg/ml of peptide; LPS control 10 EU/ml; representative of 3 experiments; Fig 2C
human neutrophils [2] = type: cell-based; conditions: compared to IAV alone, 5 experiments
human neutrophils [3] = assay: Neutrophil uptake of rhodamine labeled E.coli; type: cell-based; conditions: for Neutrophil uptake of E.coli: rhodamine labeled E.coli pre-incubated with peptide, flow cytometry, 5 experiments, separate donors, Fig 7
[4] = system: Escherichia coli (E.coli); assay: Aggregation of rhodamine labeled E.coli (fluorescent microscopy); conditions: rhodamine E. coli preincubated with 50ug/ml peptide for 1 hour at 37°C, fluorescent microscope; three experiments; Fig 6
human neutrophils [5] = assay: IAV uptake by neutrophils (flow cytometry); type: cell-based; conditions: FITC-IAV (Phil82) treated with peptide 30 min at 37°C, then neutrophils 45 minutes at 37°C, trypan blue quench, 5 experiments, separate donors
IAV [6] = assay: Confocal microscopy of Alexa Fluor 594 labeled IAV on MDCK cells; type: cell-based, influenza A virus; conditions: Alexa Fluor 594 labeled IAV pre-incubated with peptide 30 minutes at 37°C, then MDCK cells 45 min; 3 experiments; Fig 3
[7] = system: Philippines 82/H3N2 (Phil82) influenza A virus; type: cell-based
IAV [8] = assay: Viral aggregation by light absorbance at 350 nm; set-up: species or system influenza A virus; conditions: for Aggregation of IAV particles (light transmission at 350nm): dilute suspension of IAV, Fig 2A and 2B (8 and 16μg/ml)
[9] = set-up: method as in PMID 24449257; conditions: simulation kinetics and energetics, compared with βA 35–40 and βA37-42; cited from earlier work

Sequence	Viral aggregation by electron microscopy (IAV [1])	Neutrophil H2O2 formation in response to IAV, 16μg/ml (human neutrophils [2]; IAV pre-incubated with 16μg/ml peptide, Fig 5A)	Neutrophil uptake of E.coli (human neutrophils [3])	Aggregation of fluorescent E.coli [4]	Neutrophil uptake of IAV (human neutrophils [5]; Fig 4)	Neutrophil uptake of IAV (human neutrophils [5]; Fig 4, listed as 22–42)	Viral aggregates visible by confocal microscopy (IAV [6])	Inhibition of IAV infectivity (neutralization) [7]	Aggregation of IAV (light transmission at 350nm), 16μg/ml (IAV [8]; 16μg/ml of βA peptides, Fig 2B)	Aggregation of IAV particles (light transmission at 350nm) (IAV [8])	Aggregation of IAV particles (light transmission at 350nm) (IAV [8]; listed as 22–42)	Neutrophil H2O2 production in response to IAV (human neutrophils [2]; IAV pre-incubated with peptide, Fig 5B)	Neutrophil uptake of E.coli, 32μg/ml (human neutrophils [3]; 32μg/ml peptide, Fig 7A)	Propensity to assemble into unorganized oligomers [9]
EDVGSNKGAIIGLMVGGVVIA [βA22-42, βA fragment of residues 22-42, obtained from Genscript]	marked viral aggregation	increased H2O2 formation as compared to IAV alone	marked increase in uptake	caused aggregation	greater increases than βA1-42	had the ability to increase viral uptake	Aggregates were visible; also recorded: Aggregates were apparent	significantly inhibited infectivity	statistically significant aggregation	highest activity in this assay	caused aggregation of IAV particles	–	–	–
GLMVGGVV [βA33-40, βA fragment of residues 33-40, obtained from Genscript]	–	–	No significant effects	–	lacked activity	–	–	no or minimal antiviral activity	–	–	–	–	–	–
EDVGSNKGAIIGLMVGGVV [βA22-40, βA fragment of residues 22-40, obtained from Genscript]	did not	–	slight but significantly increased uptake at the highest concentration tested	did not	lacked activity	–	not	no or minimal antiviral activity	–	–	–	–	–	–
MVGGVVIA [βA35-42, 8 amino acid βA fragment of residues 35-42, obtained from Genscript]	–	–	–	–	increased uptake at the highest concentration tested	–	–	significantly inhibited infectivity	–	caused aggregation of IAV particles	–	did not increase H2O2 production	some increase in E.coli uptake	increased propensity
